Assays:
[1] = system: NCI-H929-GFP-luc human tumor cells; assay: NCI-H929 MM tumor in NOG mice; type: in vivo, mouse; details: 20 mg/kg/day i.p., 7 days
Text: Prior to and at the end of the treatment, mice were imaged for bioluminescence. […] The mice were imaged before and at the end of the treatment for bioluminescence levels. We have previously described the susceptibility of human ovarian cancer lines to proteasome inhibition. […] Prior to and 7 and 14 days after initiation of treatment, the mice were imaged for luciferase activity.
(§1) For TC-1 tumors, C57BL/6 mice (8/group) were challenged subcutaneously with 5×10^4 TC-1 cells/mice. Tumors grew for approximately 7 days until they were palpable, whereupon the mice were weighed and treatment was initiated. Tumor size was measured with a digital caliper and calculated based on the formula: [largest diameter×(perpendicular diameter)2]π/6. Nude mice (8 per group) were inoculated with 1×10^6 EΩ-Luciferase cells i.p. in 100 μL PBS. At day 3 mice were imaged for basal level luminescence expression. […] NOG mice (5 per group) were inoculated with 1×10^6 NCI-H929-GFP-Luc cells i.v., and after 4 weeks, mice were imaged for their luciferase activity and divided into two groups.

[2] = Complete blood counts and blood chemistry of C57BL/6 mice carrying TC-1 tumor; details: C57BL/6 mice with TC-1 tumor; nine doses every third day: RA190 40 mg/kg p.o., Bortezomib 1.5 mg/kg i.p.; mean ± SD, n = 3;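 also: blood drawn from the heart after euthanasia, cell counts read on an automated hemocytometer, heparinized plasma analyzed on an automated clinical chemistry analyzer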
[3] = system: purified recombinant UCH37 (with or without RPN13) or purified RP; assay: Ub-AMC hydrolysis assay; type: biochemical
Description: FIGS. 1 A-D show percent cell viability of RPMI-8226, ANBL6, and their respective in vitro selected bortezomib-resistant cell lines RPMI-8226-V10R and ANBL6-V10R as a function of 48 hr treatment with the indicated compounds. FIGS. 1 E-H show percent cell viability of indicated MM cell lines as a function of 48 hr treatment with the indicated compounds. […] Actin was used as a loading control. […] In FIG. 9C-E, purified 20S proteasomes were treated for 30 min with or without compounds (1 μM) prior to the addition of the specific fluorogenic substrate for chymotryptic (9C), tryptic (9D) or PGPH (9E) hydrolytic proteasome capacities. Mean±SD fluorescence associated with AMC released from the substrate was measured at 45 min. […] DMSO was added to all samples to a final concentration of 0.1% (upper panel). The effect of DMSO is highlighted by including ubiquitin—AMC (0.5 μM) hydrolysis with 2 nM UCH37 lacking DMSO (orange, bottom panel). In FIG. 9H, purified 19S RP (500 nM) in buffer was treated with corresponding compounds 30 min at 37° C. and AMC cleavage was measured with a fluorometer for 20 min. Ubal was used as a positive control.
Reaction mixtures contained 500 nM of the purified 19S RP (R&D Systems) in 19S enzyme assay buffer and 1 μM Ub-AMC. Release of free AMC by the enzyme reaction was determined by measuring its fluorescence at 380 nm (excitation) and 440 nm (emission). […]

HT3 = assay: Cell viability after 48-hr treatment (Table 1); type: cell-based; details: 48-hr treatment; XTT assay; read-out: IC50, HT3
Description: (§2) Cells seeded at the concentration of 1,000 cells/well for HeLa, 5,000 cells/well for ES2 and HCT116 and 10,000-20,000 cells/well for other cell lines in 100 μL medium in 96-well plate were treated with RA series compounds at specified concentrations. […]

HaCaT = assay: Cell viability after 48-hr treatment (Table 1); type: cell-based; details: 48-hr treatment; XTT assay; read-out: IC50, HaCaT
Description: as §2

SiHa = assay: Cell viability after 48-hr treatment (Table 1); type: cell-based; details: 48-hr treatment; XTT assay; read-out: IC50, SiHa
Description: as §2

RPMI8226 = assay: Cell viability after 48-hr treatment (Table 1); type: cell-based; details: XTT assay
Description: as §2

TC-1 tumor = TC-1 tumor in C57BL6 mice; type: in vivo, mouse
Description: as §1
Splenocytes were prepared and stimulated with HPV16 E7aa49-57 peptide (1 μg/mL) at the presence of GolgiPlug (BD Pharmingen) overnight at 37° C. The cells were first stained with PE-conjugated anti-mouse CD 8α (BD Pharmingen), then permeabilized, fixed and intracellularly stained with FITC-conjugated anti-mouse IFN-γ (BD Pharmingen). The data were acquired with FACS Calibur and analyzed with CellQuest software.

PAO3C cells = assay: Immunoblot of PAO3C pancreatic cell lysates; type: cell-based; details: 1 uM
Description: Cell lysate was subjected to immunoblot and probed for anti UB antibody. For Bax proteins levels cells were treated for 24 hr. Actin used as […].

U266 cells = assay: Active caspase-3 by FACS; type: cell-based; details: 0.5 μM, 8 h
Description: U266 cells were treated with RA195 (0.5 μM) and Bz(0.5 μM) for the period of 8 h. Cells were stained for PE-conjugated Caspase-3 antibody and measured active caspase-3 by FACS.

**Q.** With `Cl.N[C@@H](Cc1ccccc1)C(=O)N1CC(=Cc2ccc(Cl)c(Cl)c2)C(=O)C(=Cc2ccc(Cl)c(Cl)c2)C1` [RA190, 3,5-bis(3,4-dichlorobenzylidene)-1-(S-2-amino-3-phenyl)-piperidin-4-one-HCl salt] as the molecule, how does the “antitumor activity (bioluminescence)” value [1] read?
**A.** The value was “potent antitumor activity”.

**Q.** And the “ALBNEW (Albumin)” value [2]?
**A.** The value was 2.76 ± 0.23.

**Q.** And the “ALPNEW (Alkaline Phosphatase)” value [2]?
**A.** The value was 55.33 ± 6.50.

**Q.** And the “ALTNEW (Alanine Aminotransferase)” value [2]?
**A.** Its value is 31.33 ± 2.30.

**Q.** And the “AMYL (Amylase)” value [2]?
**A.** Its value is 621.33 ± 127.

**Q.** And the “ASTNEW (Aspartate aminotransferase)” value [2]?
**A.** Its value is 50.33 ± 4.93.

**Q.** What about the “BA(Basophils)” value [2] of the same molecule?
**A.** The value was 0.023 ± 0.011.

**Q.** What about the “BUNNEW (Blood Urea Nitrogen)” value [2] of the same molecule?
**A.** The value was 26 ± 5.29.

**Q.** What about the “CA (Calcium)” value [2] of the same molecule?
**A.** The value was 8.56 ± 0.23.

**Q.** And the “CHOL (Cholesterol)” value [2]?
**A.** Its value is 67 ± 4.58.

**Q.** What about the “CK_NEW (Creatinine Kinase)” value [2] of the same molecule?
**A.** Its value is 131 ± 65.50.

**Q.** And the “CREAT (Creatinine)” value [2]?
**A.** Its value is 0.46 ± 0.057.

**Q.** And the “EO (Eosinophils)” value [2]?
**A.** Its value is 0.10 ± 0.01.

**Q.** What about the “GGTNEW (Gamma-Glutamyl Transferase)” value [2] of the same molecule?
**A.** Its value is 5.33 ± 0.57.

**Q.** And the “GLU (Glucose)” value [2]?
**A.** The value was 170.66 ± 6.11.

**Q.** And the “HCT(Hematocrit)” value [2]?
**A.** Its value is 50.36 ± 2.45.

**Q.** And the “HDLNEW (High Density Lipoprotein)” value [2]?
**A.** Its value is 40.33 ± 4.72.

**Q.** And the “Hb (Hemoglobin)” value [2]?
**A.** The value was 13.26 ± 1.00.

**Q.** What about the “LDH (lactate Dehydrogenase)” value [2] of the same molecule?
**A.** The value was 172.06 ± 14.29.

**Q.** What about the “LY(Lymphocytes)” value [2] of the same molecule?
**A.** Its value is 1.87 ± 0.69.

**Q.** And the “MCH (Mean corpuscular hemoglobin)” value [2]?
**A.** Its value is 13.60 ± 0.53.

**Q.** What about the “MCHC (mean corpuscular hemoglobin concentration)” value [2] of the same molecule?
**A.** Its value is 26.33 ± 0.75.

**Q.** What about the “MCV (Mean corpuscular Volume)” value [2] of the same molecule?
**A.** Its value is 51.66 ± 2.63.

**Q.** And the “MO(Monocytes)” value [2]?
**A.** Its value is 0.25 ± 0.07.

**Q.** And the “MPV (Mean Platelet Volume)” value [2]?
**A.** Its value is 5.36 ± 0.06.

**Q.** And the “NE(Neutrophils)” value [2]?
**A.** Its value is 2.69 ± 0.45.

**Q.** And the “PLT (Platelet)” value [2]?
**A.** Its value is 907 ± 45.92.

**Q.** What about the “RBC (red Blood Cells)” value [2] of the same molecule?
**A.** Its value is 9.77 ± 0.76.

**Q.** And the “RDW (Red Blood Cell Distribution Width)” value [2]?
**A.** The value was 18.00 ± 0.52.

**Q.** What about the “TBIL1 (Total bilirubin)” value [2] of the same molecule?
**A.** The value was 0.233 ± 0.057.

**Q.** And the “TPROT (Total protein)” value [2]?
**A.** The value was 4.46 ± 0.11.

**Q.** And the “UA (Uric Acid)” value [2]?
**A.** Its value is 2.86 ± 0.41.

**Q.** What about the “WBC(White Blood Cells)” value [2] of the same molecule?
**A.** Its value is 7.62 ± 4.17.

**Q.** What about the “degradation of Ub-AMC” value [3] of the same molecule?
**A.** The value was “minimally affected”.

**Q.** What about the IC50 (HT3) of the same molecule?
**A.** Its IC50 is > 5000 nM.

**Q.** What about the IC50 (HaCaT) of the same molecule?
**A.** The IC50 was > 2500 nM.

**Q.** What about the IC50 (SiHa) of the same molecule?
**A.** Its IC50 is 750 nM.

**Q.** What about the IC50 (RPMI8226) of the same molecule?
**A.** Its IC50 is 100 nM.

**Q.** What about the “polyubiquitinated proteins in tumor lysates” value (TC-1 tumor; i.p. 20 mg/kg daily for 7 days, western blot) of the same molecule?
**A.** Its value is “dramatically elevated”.

**Q.** What about the “weight gain and spontaneous E7-specific CD8+ T cell response versus vehicle” value (TC-1 tumor; oral 40 mg/kg every third day) of the same molecule?
**A.** Its value is “did not differ significantly”.

**Q.** What about the final tumor weight (TC-1 tumor; oral 40 mg/kg every third day, after 14-day treatment period) of the same molecule?
**A.** Its final tumor weight is 727 ± 101 mg.

**Q.** And the “TC-1 tumor growth versus vehicle” value (TC-1 tumor; oral 40 mg/kg every third day, p<0.001)?
**A.** Its value is “significantly inhibited”.

**Q.** With `Cl.NCCCC[C@H](NC(=O)OCC1c2ccccc2-c2ccccc21)C(=O)N1C/C(=C\c2ccc(Cl)c(Cl)c2)C(=O)/C(=C/c2ccc(Cl)c(Cl)c2)C1` [RA195] as the molecule, how does the “Poly Ubiquitinated proteins” value (PAO3C cells; 12 h) read?
**A.** Its value is “causes accumulation of Poly Ubiquitinated proteins”.

**Q.** And the “apoptotic protein Bax” value (PAO3C cells; 24 hr)?
**A.** Its value is “elevation of apoptotic protein Bax”.

**Q.** And the “active caspase-3” value (U266 cells)?
**A.** Its value is “caused an increase in caspase-3 expression”.
